Source: PMC10120462, “Styrylquinazoline derivatives as ABL inhibitors selective for different DFG orientations” (Journal of Enzyme Inhibition and Medicinal Chemistry, 2023)

Legend:
[1] = target: T1, Lyn B (Homo sapiens, UniProt P07948); assay: Tyrosine kinase assay (Kinase Selectivity System TK-2, ADP-Glo); assay type: biochemical; settings: 1 h incubation, mean ± SD of four experiments
T1 construct: purchased Promega

[2] = target: T2, Src (Homo sapiens, UniProt P12931); assay: as above; assay type: biochemical; settings: 1 h incubation, mean ± SD of four experiments; for Inhibition of tyrosine kinase activity [%] Src: 0.5 μM
T2 construct: purchased Promega

[3] = target: T3, Fyn A (Homo sapiens, UniProt P06241); assay: as above; assay type: biochemical; settings: 1 h incubation, mean ± SD of four experiments
T3 construct: purchased Promega
From the text: All newly synthesised derivatives were screened for their inhibitory potential towards eight non-receptor tyrosine kinases, such as ABL, BTK, BRK and Src family kinases, such as CSK, Lyn, Lck, Fyn and Src. […] To facilitate the analysis of the structure and enzymatic activity, all tested compounds were divided into four subgroups based on the main structural scaffolds (the general structure of each group is shown in the second column of Table 1). Series A, B, and C were subdivided according to the S^4-aryl substituent, while D represents the different styryl groups at the C^2-quinazoline position.
Herein, we used a kinase assay that contained fully expressed kinases with their regulatory domains, which are responsible for autoinhibition. The proteins are present in their unphosphorylated form and the procedure required supplementation with ATP. Importantly, autophosphorylation of ABL is dependent on […] concentration of the protein. Thus, our experimental conditions reflect the cellular process to be simulated. The luminescence signal detected after one hour of incubation with a peptide substrate was a measure of inhibition. Under these conditions, the question of whether the inhibitors tested bind to the ortho or allosteric site of the protein could be answered. […] To test this hypothesis, further molecular docking experiments were performed to more precisely determine the binding of the tested compounds to the ABL kinase.
To determine the inhibition of non-receptor tyrosine kinases, assays were performed using the kinase selectivity system TK-2 and the ADP-Glo Kinase Assay (both from Promega). The protocol was previously developed by our group and described in reports[12]^,[36]. Experiments were performed at least four times. Data are expressed as percentage of tyrosine kinase inhibitory activity after treatment with the derivatives tested.

[4] = target: T4, Lck (Homo sapiens, UniProt P06239); assay: as above; assay type: biochemical; settings: 1 h incubation, mean ± SD of four experiments
T4 construct: purchased Promega

[5] = test system: K562; assay: Cytotoxicity studies (MTS), antiproliferative activity; assay type: cell-based, human; settings: Homo sapiens, K562; 72 h, MTS
From the text: (§1) In contrast, the other cell lines studied represent common cancers found in the human population. Nevertheless, these cell lines are characterised by a different landscape of kinase expression, as reported in[36]. In chronic leukaemia cells, an aberration of the Philadelphia chromosome is common in which a fragment of chromosome 9 is displaced to chromosome 22, leading to the formation of the oncogenic protein BCR-ABL. The altered structure of the protein leads to abnormal activity that promotes excessive growth and differentiation of cells even in the absence of growth factors, as well as inhibition of apoptosis and formation of metastases. Moreover, the status of the TP53 gene in leukaemia is not insignificant. Mutations of the TP53 gene occur in more than 50% of all cancers, leading to increased metastasis and an overall poor prognosis[38]^,[39]. The p53 protein encoded by this gene plays a pivotal role in controlling cell division or cell fate when damage is detected. […] Therefore, interaction between the signalling network of the BCR-ABL pathway and p53 often results in an impairment of p53 function and survival[43]^,[44]. […] Selectivity studies were performed on normal human fibroblast – NHDF cell line.
(§2) M. Rusin from the Maria Sklodowska-Curie Memorial Cancer Centre and Institute of Oncology in Gliwice, Poland. […] G. Kramer-Marek from the Institute of Cancer Research in London, United Kingdom. The human suspension chronic myeloids leukaemia cell line K562 and the pancreatic ductal adenocarcinoma cell line PANC-1 were purchased from Merck. The normal human dermal fibroblasts cell line NHDF were obtained from PromoCell. All adherent cancer cell lines were cultured in Dulbecco’s Modified Eagle’s medium (DMEM) supplemented with 10% heat-inactivated foetal bovine serum – FBS (all from Merck). […] Each complete medium contained a mixture of two antibiotics - penicillin and streptomycin (1% v/v; Gibco). Cell lines were cultured at 37 °C with 5% CO2 humidified atmosphere.
(§3) The assay was carried out after 72 h of incubation with different concentrations of the tested compounds. Then DMEM without phenol red was added to each well with CellTiter 96®AQueous One Solution-MTS (Promega) solution and incubated for 1 h or 3 h (PANC-1) at 37 °C. The optical densities of the samples were measured at 490 nm using a multi-plate reader (Synergy 4, BioTek). […] Each compound was tested in triplicate in a single experiment and each experiment was performed three or four times.

[6] = test system: MCF-7; assay: as above; assay type: cell-based, human; settings: Homo sapiens, MCF7; 72 h, MTS
From the text: as §1, §2, §3

[7] = test system: HCT 116 p53+/+; assay: as above; assay type: cell-based, human; settings: Homo sapiens, HCT-116; 72 h, MTS
From the text: as §1, §2, §3

[8] = test system: U-251; assay: as above; assay type: cell-based, human; settings: Homo sapiens, U-251; 72 h, MTS
From the text: as §1, §2, §3

[9] = test system: PANC-1; assay: as above; assay type: cell-based, human; settings: Homo sapiens, PANC-1; 72 h, MTS
From the text: as §1, §2, §3

[10] = target: T5, ABL (Homo sapiens, UniProt P00519); assay: Tyrosine kinase assay (Kinase Selectivity System TK-2, ADP-Glo); assay type: biochemical; settings: 1 h incubation, mean ± SD of four experiments
T5 construct: purchased Promega

[11] = target: T6, CSK (Homo sapiens, UniProt P41240); assay: as above; assay type: biochemical; settings: 1 h incubation, mean ± SD of four experiments
T6 construct: purchased Promega

[12] = target: T7, BTK (Homo sapiens, UniProt Q06187); assay: as above; assay type: biochemical; settings: 1 h incubation, mean ± SD of four experiments
T7 construct: purchased Promega

[13] = target: T8, BRK (Homo sapiens, UniProt Q13882); assay: as above; assay type: biochemical; settings: 1 h incubation, mean ± SD of four experiments
T8 construct: purchased Promega

[14] = test system: NHDF; assay: Cytotoxicity studies (MTS), normal fibroblasts; assay type: cell-based; settings: 72 h, normal human fibroblasts, read-out: Antiproliferative activity IC50 NHDF
From the text: as §1, §2, §3

[15] = test system: A549; assay: Cytotoxicity studies (MTS), antiproliferative activity; assay type: cell-based, human; settings: Homo sapiens, A549; 72 h, MTS
From the text: as §1, §2, §3

[16] = test system: HCT 116 p53−/−; assay: as above; assay type: cell-based, human; settings: Homo sapiens, HCT-116; 72 h, MTS
From the text: as §1, §2, §3

T3 sequence (P06241 whole entry): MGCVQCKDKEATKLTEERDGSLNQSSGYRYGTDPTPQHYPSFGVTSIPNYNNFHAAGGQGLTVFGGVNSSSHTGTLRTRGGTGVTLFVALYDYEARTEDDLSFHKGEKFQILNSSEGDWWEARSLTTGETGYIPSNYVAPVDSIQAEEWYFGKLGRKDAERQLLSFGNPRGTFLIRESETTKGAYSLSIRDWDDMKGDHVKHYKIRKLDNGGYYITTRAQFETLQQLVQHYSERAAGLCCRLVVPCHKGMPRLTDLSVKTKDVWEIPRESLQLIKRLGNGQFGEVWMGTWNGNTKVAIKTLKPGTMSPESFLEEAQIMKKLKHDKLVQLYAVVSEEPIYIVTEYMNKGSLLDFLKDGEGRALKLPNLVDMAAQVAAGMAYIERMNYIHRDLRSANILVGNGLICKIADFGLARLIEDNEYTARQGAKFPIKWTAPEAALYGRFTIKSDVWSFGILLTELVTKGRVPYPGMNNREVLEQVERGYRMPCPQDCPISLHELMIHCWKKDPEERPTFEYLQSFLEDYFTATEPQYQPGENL
T4 sequence (P06239 whole entry): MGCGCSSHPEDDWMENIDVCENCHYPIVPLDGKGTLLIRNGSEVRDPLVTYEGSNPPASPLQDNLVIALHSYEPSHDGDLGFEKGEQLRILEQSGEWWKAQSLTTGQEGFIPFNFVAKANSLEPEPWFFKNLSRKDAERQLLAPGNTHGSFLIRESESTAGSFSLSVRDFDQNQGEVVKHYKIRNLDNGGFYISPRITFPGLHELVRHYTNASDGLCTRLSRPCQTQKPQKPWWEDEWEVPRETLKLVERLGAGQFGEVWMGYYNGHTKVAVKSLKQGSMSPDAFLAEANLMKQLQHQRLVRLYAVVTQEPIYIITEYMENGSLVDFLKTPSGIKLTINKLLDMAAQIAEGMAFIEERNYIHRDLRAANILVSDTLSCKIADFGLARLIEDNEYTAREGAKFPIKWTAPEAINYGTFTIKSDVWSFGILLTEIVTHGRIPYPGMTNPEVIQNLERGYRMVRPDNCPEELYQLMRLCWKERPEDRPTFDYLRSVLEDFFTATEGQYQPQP
T2 sequence (P12931 whole entry): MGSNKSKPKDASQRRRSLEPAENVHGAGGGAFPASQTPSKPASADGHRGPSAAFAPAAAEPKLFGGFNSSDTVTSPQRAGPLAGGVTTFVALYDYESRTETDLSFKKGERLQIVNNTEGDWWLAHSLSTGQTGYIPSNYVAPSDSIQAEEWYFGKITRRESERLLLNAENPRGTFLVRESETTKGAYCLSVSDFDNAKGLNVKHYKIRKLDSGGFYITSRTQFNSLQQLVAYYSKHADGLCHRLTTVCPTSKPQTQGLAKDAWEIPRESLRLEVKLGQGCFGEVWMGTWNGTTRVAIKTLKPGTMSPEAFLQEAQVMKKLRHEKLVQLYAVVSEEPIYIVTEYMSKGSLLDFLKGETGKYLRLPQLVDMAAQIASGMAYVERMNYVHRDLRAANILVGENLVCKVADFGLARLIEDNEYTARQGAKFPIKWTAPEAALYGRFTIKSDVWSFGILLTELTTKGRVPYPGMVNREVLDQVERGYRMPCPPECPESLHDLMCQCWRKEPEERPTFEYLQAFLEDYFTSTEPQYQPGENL
T6 sequence (P41240 whole entry): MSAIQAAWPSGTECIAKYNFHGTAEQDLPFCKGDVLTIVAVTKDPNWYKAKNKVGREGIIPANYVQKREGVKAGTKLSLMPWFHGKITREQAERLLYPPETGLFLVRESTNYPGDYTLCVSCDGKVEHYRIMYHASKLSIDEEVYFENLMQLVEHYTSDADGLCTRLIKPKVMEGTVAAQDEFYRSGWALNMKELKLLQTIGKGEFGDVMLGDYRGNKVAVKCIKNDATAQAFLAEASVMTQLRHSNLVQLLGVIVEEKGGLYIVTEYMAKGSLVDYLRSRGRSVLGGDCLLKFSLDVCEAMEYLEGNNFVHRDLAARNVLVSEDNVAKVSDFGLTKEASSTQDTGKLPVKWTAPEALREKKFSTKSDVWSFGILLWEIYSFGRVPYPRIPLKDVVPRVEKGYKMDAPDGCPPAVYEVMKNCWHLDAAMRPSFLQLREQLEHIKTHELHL
T5 sequence (P00519 whole entry): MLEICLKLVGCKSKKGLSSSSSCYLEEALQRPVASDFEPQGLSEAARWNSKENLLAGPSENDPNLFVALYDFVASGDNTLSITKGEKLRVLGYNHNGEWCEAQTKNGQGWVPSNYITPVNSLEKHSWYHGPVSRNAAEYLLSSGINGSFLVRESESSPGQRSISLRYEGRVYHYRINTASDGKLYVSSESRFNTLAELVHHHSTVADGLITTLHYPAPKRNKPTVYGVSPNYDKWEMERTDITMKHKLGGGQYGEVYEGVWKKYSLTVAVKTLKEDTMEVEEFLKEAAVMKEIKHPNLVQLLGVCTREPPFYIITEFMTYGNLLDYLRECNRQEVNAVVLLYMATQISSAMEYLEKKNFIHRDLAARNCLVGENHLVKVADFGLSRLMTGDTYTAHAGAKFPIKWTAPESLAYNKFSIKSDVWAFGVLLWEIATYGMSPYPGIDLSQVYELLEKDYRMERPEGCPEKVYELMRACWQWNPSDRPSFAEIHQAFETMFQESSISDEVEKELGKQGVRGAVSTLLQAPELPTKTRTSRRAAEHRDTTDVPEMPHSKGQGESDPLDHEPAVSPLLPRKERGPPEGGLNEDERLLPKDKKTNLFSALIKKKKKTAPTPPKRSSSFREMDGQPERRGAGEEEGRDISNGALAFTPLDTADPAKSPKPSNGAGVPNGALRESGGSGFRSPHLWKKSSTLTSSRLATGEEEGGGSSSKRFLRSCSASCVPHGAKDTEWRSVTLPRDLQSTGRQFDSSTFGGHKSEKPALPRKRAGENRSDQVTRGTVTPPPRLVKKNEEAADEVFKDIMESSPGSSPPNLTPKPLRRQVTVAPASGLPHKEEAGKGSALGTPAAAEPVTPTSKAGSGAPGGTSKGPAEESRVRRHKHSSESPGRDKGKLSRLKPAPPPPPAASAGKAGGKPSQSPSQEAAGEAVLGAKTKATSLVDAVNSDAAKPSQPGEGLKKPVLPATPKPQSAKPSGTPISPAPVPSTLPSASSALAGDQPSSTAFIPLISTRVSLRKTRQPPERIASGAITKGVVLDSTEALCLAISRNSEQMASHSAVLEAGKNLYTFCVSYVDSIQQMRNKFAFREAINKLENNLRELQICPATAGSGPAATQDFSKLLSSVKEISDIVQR
T1 sequence (P07948 1-491 isoform P07948-2): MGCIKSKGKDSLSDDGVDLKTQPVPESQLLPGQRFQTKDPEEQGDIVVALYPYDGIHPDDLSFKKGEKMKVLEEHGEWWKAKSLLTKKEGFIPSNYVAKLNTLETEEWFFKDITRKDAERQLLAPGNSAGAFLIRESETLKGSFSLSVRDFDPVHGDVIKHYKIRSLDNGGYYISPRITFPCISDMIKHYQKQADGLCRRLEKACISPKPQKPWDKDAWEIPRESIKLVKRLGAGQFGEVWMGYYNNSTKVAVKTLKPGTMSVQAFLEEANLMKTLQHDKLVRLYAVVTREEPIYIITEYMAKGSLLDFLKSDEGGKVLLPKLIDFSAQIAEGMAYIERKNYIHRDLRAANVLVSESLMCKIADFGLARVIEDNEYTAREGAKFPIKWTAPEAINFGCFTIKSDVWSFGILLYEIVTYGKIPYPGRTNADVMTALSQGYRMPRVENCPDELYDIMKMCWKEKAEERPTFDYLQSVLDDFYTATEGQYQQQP
T8 sequence (Q13882 whole entry): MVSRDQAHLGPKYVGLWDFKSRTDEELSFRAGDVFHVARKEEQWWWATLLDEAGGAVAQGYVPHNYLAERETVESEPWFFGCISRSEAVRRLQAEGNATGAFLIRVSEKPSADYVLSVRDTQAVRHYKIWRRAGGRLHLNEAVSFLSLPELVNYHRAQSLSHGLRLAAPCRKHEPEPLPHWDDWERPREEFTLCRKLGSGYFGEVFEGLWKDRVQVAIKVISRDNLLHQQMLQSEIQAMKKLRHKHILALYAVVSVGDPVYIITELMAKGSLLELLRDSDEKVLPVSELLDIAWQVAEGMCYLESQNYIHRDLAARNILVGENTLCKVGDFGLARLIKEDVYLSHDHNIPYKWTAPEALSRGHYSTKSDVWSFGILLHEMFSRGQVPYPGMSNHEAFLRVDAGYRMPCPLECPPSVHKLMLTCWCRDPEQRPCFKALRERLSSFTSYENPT
T7 sequence (Q06187 whole entry): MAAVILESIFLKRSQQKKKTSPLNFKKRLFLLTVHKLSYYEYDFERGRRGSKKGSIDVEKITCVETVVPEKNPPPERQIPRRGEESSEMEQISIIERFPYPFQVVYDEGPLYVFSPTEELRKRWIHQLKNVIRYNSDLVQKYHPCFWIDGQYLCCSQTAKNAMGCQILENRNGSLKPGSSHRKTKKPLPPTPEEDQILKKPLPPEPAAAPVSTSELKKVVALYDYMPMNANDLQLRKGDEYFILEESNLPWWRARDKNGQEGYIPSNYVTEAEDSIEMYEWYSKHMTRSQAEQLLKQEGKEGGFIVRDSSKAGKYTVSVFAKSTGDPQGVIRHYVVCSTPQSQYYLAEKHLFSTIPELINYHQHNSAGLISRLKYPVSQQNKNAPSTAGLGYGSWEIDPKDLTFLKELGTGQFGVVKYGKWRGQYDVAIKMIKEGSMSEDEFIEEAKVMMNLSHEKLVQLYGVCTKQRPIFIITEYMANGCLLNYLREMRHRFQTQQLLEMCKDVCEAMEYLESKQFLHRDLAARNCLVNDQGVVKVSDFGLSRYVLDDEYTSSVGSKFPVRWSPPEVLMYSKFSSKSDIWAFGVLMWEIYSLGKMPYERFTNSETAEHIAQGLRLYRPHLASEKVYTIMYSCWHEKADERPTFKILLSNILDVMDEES

In the case of `COc1ccccc1/C=C/c1nc(Sc2ccccc2C(F)(F)F)c2ccccc2n1` [IS6, 2-[(E)-2–(2-methoxyphenyl)ethenyl]-4-[2-(trifluoromethyl)phenylthio]quinazoline], the inhibition at 0.5 µM [1] is reported as 1.39 ± 0.41%, the inhibition at 0.5 µM [2] is reported as 43.8 ± 9.07% and the inhibition at 0.5 µM [3] is reported as 26.1 ± 8.39%. For the same molecule, the inhibition at 0.5 µM [4] was 0%, the IC50 [5] was greater than 25 µM and the IC50 [6] was greater than 25 µM. For the same molecule, the IC50 [7] was greater than 25 µM, the IC50 [8] was greater than 25 µM and the IC50 [9] was greater than 25 µM. It also gave an inhibition at 0.5 µM [10] of 1.18 ± 0.17% and an inhibition at 0.5 µM [11] of 0%.

In the case of `COc1ccccc1/C=C/c1nc(Sc2cccc(Cl)c2)c2ccccc2n1` [IS2, 2-[(E)-2–(2-methoxyphenyl)ethenyl]-4–(3-chlorophenylthio)quinazoline], the inhibition at 0.5 µM [1] is reported as 38.4 ± 8.58%, the “Inhibition of tyrosine kinase activity [%] Src” value [2] is reported as 58.56 ± 4.80% and the inhibition at 0.5 µM [2] is reported as 58%. For the same molecule, the “Inhibition of tyrosine kinase activity [%] Fyn A” value ([3]; 0.5 μM) was 52.32 ± 7.04%, the inhibition at 0.5 µM [3] was 52% and the “Inhibition of tyrosine kinase activity [%] Lck” value ([4]; 0.5 μM) was 73.92 ± 9.72%. The inhibition at 0.5 µM [4] was roughly 74%, the IC50 [5] was 24.8 ± 2.45 µM and the IC50 [6] was 19.7 ± 1.13 µM. The IC50 [7] was 23.8 ± 5.32 µM, the IC50 [8] was greater than 25 µM and the IC50 [9] was 25.1 ± 1.44 µM. The inhibition at 0.5 µM [10] was 25.2 ± 3.69% and the inhibition at 0.5 µM [11] was 62.1 ± 4.45%.

With `COc1ccccc1/C=C/c1nc(Sc2ccc(SC)cc2)c2ccccc2n1` [IS9, 2-[(E)-2–(2-methoxyphenyl)ethenyl]-4-[4-(methylthio)phenylthio]quinazolin] the “Inhibition of tyrosine kinase activity [%] Lyn B” value ([1]; 0.5 μM) was 57.44 ± 1.76%, the inhibition at 0.5 µM [1] was 57% and the inhibition at 0.5 µM [12] was 28.7 ± 2.94%. The inhibition at 0.5 µM [13] was 19.3 ± 4.65%, the “Inhibition of tyrosine kinase activity [%] Src” value [2] was 54.23 ± 3.07% and the inhibition at 0.5 µM [2] was 54%. It also gave an inhibition at 0.5 µM [3] of 52 ± 3.43%, an inhibition at 0.5 µM [4] of 60.7 ± 5.1% and an IC50 [14] greater than 25 µM. The IC50 [5] was greater than 25 µM, the IC50 [15] was greater than 15 µM and the IC50 [16] was greater than 20 µM. For the same molecule, the IC50 [7] was greater than 20 µM, the IC50 [8] was greater than 10 µM and the IC50 [9] was greater than 25 µM. For the same molecule, the inhibition at 0.5 µM [10] was 35.9 ± 7.23% and the inhibition at 0.5 µM [11] was 39.2 ± 6.47%.

`COc1ccccc1/C=C/c1nc(Sc2ccccc2F)c2ccccc2n1` [IS5, 2-[(E)-2–(2-methoxyphenyl)ethenyl]-4–(2-fluorophenylthio)quinazoline] was tested, and the inhibition at 0.5 µM [1] was 7.67 ± 3.28%, the inhibition at 0.5 µM [2] was 28.2 ± 5.41% and the inhibition at 0.5 µM [3] was 3.77 ± 1.21%. It also gave an inhibition at 0.5 µM [4] of 37 ± 7.87%, an IC50 [5] greater than 25 µM and an IC50 [6] greater than 25 µM. For the same molecule, the IC50 [7] was greater than 25 µM, the IC50 [8] was greater than 25 µM and the IC50 [9] was greater than 25 µM. The inhibition at 0.5 µM [10] was 18.5 ± 1.59% and the inhibition at 0.5 µM [11] was 23.1 ± 5.24%.

For `COc1ccc(/C=C/c2nc(Sc3ccccc3Cl)c3ccccc3n2)cc1` [IS18, 2-[(E)-2–(4-methoxyphenyl)ethenyl]-4–(2-chlorophenylthio)quinazoline], the inhibition at 0.5 µM [1] was 13.8 ± 1%, the inhibition at 0.5 µM [2] was 26.1 ± 6.03% and the inhibition at 0.5 µM [3] was 17.3 ± 4.47%. It also gave an inhibition at 0.5 µM [4] of 66.5 ± 7.49%, an IC50 [5] greater than 25 µM and an IC50 [6] of 10.6 ± 1.38 µM. The IC50 [7] was 11.1 ± 1.37 µM, the IC50 [8] was 10.3 ± 0.818 µM and the IC50 [9] was 12 ± 1.2 µM. For the same molecule, the inhibition at 0.5 µM [10] was 11.7 ± 4.03% and the inhibition at 0.5 µM [11] was 0%.
